Data set [1] can be described thus: Molar ratio SAE-CD:corticosteroid at saturated solubility (phase solubility binding study). It counts as physicochemical.
Data set [2] can be described thus: Light stability of budesonide under fluorescent lights. It counts as physicochemical. The source says: Samples of the above solutions were also placed in a chamber under a bank of fluorescent lights. Vials were periodically removed and assayed for budesonide. […] The loss of budesonide was first order and independent of pH.
The nature of data set [3]: Solubility of selected steroids enhanced by cyclodextrins (phase solubility). The note with it: thermodynamic from solid.
The conditions of data set [4]: male, human, in vivo; cited from earlier work.
A short description of data set [5]: Density of CAPTISOL solutions (pycnometer). The note with it: 25° C. It counts as physicochemical. The protocol:
The concentration of SAE-CD in solution can be expressed on a weight to weight or weight to volume basis; however, these two units are interconvertible. When a known weight of cyclodextrin is dissolved in a known weight of water, the % w/w cyclodextrin concentration is determined by dividing the cyclodextrin weight in grams by the total weight (cyclodextrin+water weight) in like units and multiplying by 100. When a known weight of cyclodextrin is dissolved to a known total volume, the % w/v cyclodextrin concentration is determined by dividing the cyclodextrin weight in grams by the total volume in milliliters and multiplying by 100. The correlation between the two cyclodextrin concentration percentages was experimentally determined by preparing various % w/w cyclodextrin solutions and measuring the density of each with a pycnometer at 25° C.

For a further data set, the system named is red blood cells. To be noted: concentrations typically used to solubilize pharmaceutical formulations; cited from earlier work.
The nature of data set [6]: Tonicity of SBE7-β-CD solutions with respect to blood. The class given is physicochemical. To be noted: in water. From the text: An osmotic agent can be used in the compositions to enhance the overall comfort to the patient upon delivery of the corticosteroid composition. Osmotic agents can be added to adjust the tonicity of SAE-CD containing solutions. Osmolality is related to concentration of SAE-CD in water. At SBE7-β-CD concentrations below about 11-13% w/v, the solutions are hypotonic or hypoosmotic with respect to blood and at SBE7-β-CD concentrations above about 11-13% w/v the SBE7-β-CD containing solutions are hypertonic or hyperosmotic with respect to blood. When red blood cells are exposed to solutions that are hypo- or hypertonic, they can shrink or swell in size, which can lead to hemolysis. As noted above and in FIG. 1, SBE-CD is less prone to induce hemolysis than other derivatized cyclodextrins. Suitable osmotic agents include any low molecular weight water-soluble species pharmaceutically approved for pulmonary and nasal delivery such as sodium chloride, lactose and glucose. The formulation of the invention can also include biological salt(s), potassium chloride, or other electrolyte(s).

A short description of data set [7]: Viscosity of aqueous SAE-CD solutions (cone and plate viscometer). The note with it: 25 C. It counts as physicochemical. Here is the method: The performance of an inhalable solution of the invention in a nebulizer may depend upon the viscosity of the solution in its reservoir, the nebulization solution. Viscosity of the inhalable composition can have an impact on percentage of nebulization composition emitted from a nebulizer, output rate of nebulized corticosteroid and droplet size distribution.
The viscosity of aqueous solutions containing SAE-CD were measured using a cone and plate viscometer.
A Brookfield Programmable DV-III+ Rheometer, CPE-40 cone and CPE 40Y plate (Brookfield Engineering Laboratories, Middleboro, Mass.) was used to make measurements on 0.5 ml samples at 1, 2, 3, 5 and 10 rpm. Samples were sheered for approximately 5 revolutions prior to each measurement. This allowed accurate rheological characterization of the samples. The temperature of all samples was equilibrated to 25+/−1 degree centigrade using a double wall viscometer cone supplied with water from an electronically controlled thermostatic circulating water bath (Model, 8001, Fisher Scientific, Pittsburgh, Pa.). The viscometer was calibrated using 5 and 50 centipoise using silicon oil calibration standards. Viscosity measurements were made at 5 or more rotation speeds to look for sheer thinning behavior (viscosities that decrease as the rate of sheer increases). Higher rotation speeds result in increased rates of sheer.

Broadly, the solubility is how much of the substance goes into solution per volume. With `CCCC1O[C@@H]2C[C@H]3[C@@H]4CCC5=CC(=O)C=C[C@]5(C)[C@H]4[C@@H](O)C[C@]3(C)[C@]2(C(=O)CO)O1` (stereo partly drawn) [Budesonide, (R,S)-11β,16α,17,21-tetrahydroxypregna-1,4-diene-3,20-dione cyclic 16,17-acetal with butyraldehyde], the “Approximate Molar Ratio at Saturated Solubility of Corticosteroid (SAE-CD: corticosteroid)” value in data set [1] (SAE-α-CD) is recorded as roughly 12; in data set [1] (SAE-β-CD), roughly 16; in data set [1] (SAE-γ-CD (SBE5.2)) it was ~10.8 (SBE5.2),; in data set [1] (SAE-γ-CD (SBE6.1)), ~13 (SBE6.1),; in data set [1] (SAE-γ-CD (SPE5.4)) it was ~10.1 (SPE5.4). In addition, the “Light Stability, Pseudo 1st Order Rate constant” value is 0.0585 h⁻¹ in data set [2] (Captisol, pH 4); 0.0562 h⁻¹ in data set [2] (Captisol, pH 6); 0.0812 h⁻¹ in data set [2] (No Captisol, pH 4); 0.0822 h⁻¹ in data set [2] (No Captisol, pH 6). Further, the solubility was 3.76 mM in data set [3] (aqueous cyclodextrin solution, aqueous with cosolvent or surfactant or cyclodextrin, Solubility of steroid, (SBE)5.2 γ-CD 0.04 M); 8.62 mM in data set [3] (aqueous cyclodextrin solution, aqueous with cosolvent or surfactant or cyclodextrin, Solubility of steroid, (SBE)5.2 γ-CD 0.1 M); 3.07 mM in data set [3] (aqueous cyclodextrin solution, aqueous with cosolvent or surfactant or cyclodextrin, Solubility of steroid, (SBE)6.1 γ-CD 0.04 M); 6.99 mM in data set [3] (aqueous cyclodextrin solution, aqueous with cosolvent or surfactant or cyclodextrin, Solubility of steroid, (SBE)6.1 γ-CD 0.08 M); 2.55 mM in data set [3] (aqueous cyclodextrin solution, aqueous with cosolvent or surfactant or cyclodextrin, Solubility of steroid, (SBE)6.7 β-CD 0.0465 M); 4.28 mM in data set [3] (aqueous cyclodextrin solution, aqueous with cosolvent or surfactant or cyclodextrin, Solubility of steroid, (SBE)6.7 β-CD 0.0950 M). The solubility was 3.48 mM in data set [3] (aqueous cyclodextrin solution, aqueous with cosolvent or surfactant or cyclodextrin, Solubility of steroid, (SBE)7 α-CD 0.04 M); 5.98 mM in data set [3] (aqueous cyclodextrin solution, aqueous with cosolvent or surfactant or cyclodextrin, Solubility of steroid, (SBE)7 α-CD 0.08 M); 4.53 mM in data set [3] (aqueous cyclodextrin solution, aqueous with cosolvent or surfactant or cyclodextrin, Solubility of steroid, (SBE)9.7 γ-CD […]); 4.01 mM in data set [3] (aqueous cyclodextrin solution, aqueous with cosolvent or surfactant or cyclodextrin, Solubility of steroid, (SPE)5.4 γ-CD 0.04 M); 7.74 mM in data set [3] (aqueous cyclodextrin solution, aqueous with cosolvent or surfactant or cyclodextrin, Solubility of steroid, (SPE)5.4 γ-CD 0.08 M); 2.42 mM in data set [3] (aqueous cyclodextrin solution, aqueous with cosolvent or surfactant or cyclodextrin, Solubility of steroid, (SPE)7 β-CD 0.08 M). Further, the solubility in data set [3] (aqueous cyclodextrin solution, aqueous with cosolvent or surfactant or cyclodextrin, Solubility of steroid, β-CD 0.015M) amounted to 0.813 mM; in data set [3] (aqueous cyclodextrin solution, aqueous with cosolvent or surfactant or cyclodextrin, Solubility of steroid, γ-CD 0.035 M), 0.101 mM; in data set [3] (aqueous cyclodextrin solution, aqueous with cosolvent or surfactant or cyclodextrin, Solubility of steroid, γ-CD 0.1 M) it was 0.041 mM; in data set [3] (aqueous cyclodextrin solution, aqueous with cosolvent or surfactant or cyclodextrin, [Steroid] solubility, (SBE)6.1 γ-CD (0.04 M)), 3.07 mM; in data set [3] (aqueous cyclodextrin solution, aqueous with cosolvent or surfactant or cyclodextrin, [Steroid] solubility, Captisol (0.04 M)), 2.55 mM; in data set [3] (water, Solubility of steroid, H2O, no CD) it was 0.0659 mM. For the same compound, the solubility in data set [3] (water, [Steroid] Intrinsic Solubility (in H2O), in H2O) worked out at 0.066 mM.
As to `CCNC(=O)[C@@H]1CCCN1C(=O)[C@H](CCCNC(=N)N)NC(=O)[C@H](CC(C)C)NC(=O)[C@@H](CC(C)C)NC(=O)[C@H](Cc1ccc(O)cc1)NC(=O)[C@H](CO)NC(=O)[C@H](Cc1c[nH]c2ccccc12)NC(=O)[C@H](Cc1c[nH]cn1)NC(=O)[C@@H]1CCC(=O)N1` [leuprolide acetate], in data set [4], the Bioavailability is 2.4% and the “Bioavailability compared with i.v.” value is given as 94%.
As for “Sulfobutyl ether β-cyclodextrin [Captisol]”, the Density is reported as 1.041 g/mL in data set [5] (8.5 % w/w Captisol); 1.149 g/mL in data set [5] (29.8 % w/w Captisol); 1.202 g/mL in data set [5] (39.7 % w/w Captisol); 1.259 g/mL in data set [5] (49.4 % w/w Captisol); 1.320 g/mL in data set [5] (59.4 % w/w Captisol); 1.095 g/mL in data set [5] ([…] w/w Captisol). Besides, the Hemolytic behavior result with red blood cells is “essentially no hemolytic behavior”. Besides, the “SBE7-β-CD concentration below which solutions are hypotonic and above which hypertonic with respect to blood” value in data set [6] is recorded as 11-13 % w/v. Further, the Viscosity in data set [7] (8.5 % w/w Captisol) was 1.75 Cp; in data set [7] (29.8 % w/w Captisol), 5.91 Cp; in data set [7] (39.7 % w/w Captisol), 17.0 Cp; in data set [7] (49.4 % w/w Captisol), 51.9 Cp; in data set [7] (59.4 % w/w Captisol), 527.0 Cp; in data set [7] ([…] w/w Captisol), 2.78 Cp.
